Results as given in patent US10648917B2, “Luminescent compositions and applications thereof” (THE PENN STATE RESEARCH FOUNDATION, priority 2015, dated 2020).
Where two headings read alike, the source gives them in different places. Each block holds one compound with its values, some of them ahead of it.

Assays:
[1] = Fluorescence spectra, absorbance and quantum yield (spectrofluorometer, integration sphere); assay type: physicochemical; conditions: for Shifting (emission shifting with excitation wavelength): CFD dyes; for Φ (quantum yield) / λem (maximum emission wavelength) / λex (maximum excitation wavelength) / ϵ (extinction coefficiency): Table III
Experimental: Fluorescence spectra were recorded by a Horiba FluoroMax-4 spectrofluorometer. All polymer and small molecule samples were measured at a concentration of 2% w/w in 1,4-dioxane or DI water and a slit size of 1 nm by 1 nm unless otherwise specified. Quantum yields were also determined on the same spectrofluorometer by using a Quantum-φ integration sphere at the same concentration and slit size with the blank solvent as the reference. ^1H-NMR, ^13C-NMR were performed on a JNM ECS 300 spectrometer using DMSO-d6 or D2O as solvents. Attenuated total reflection Fourier transform infrared (ATR-FTIR) spectra were collected with a Bruker V70 spectrometer using BPLP films. A Shimadzu HPLC-MS system with a Phenomenex Kinetex 2.6u XB-C18 100 mm×2.9 mm column, a SPD M20A PDA detector and a RF-20AXS fluorescence detector (Ex. 360 nm and Em. 430 nm) was used to characterize the structures of fluorophores as well. The mobile phase was a gradient of DI water and acetonitrile with 0-6 min 2% acetonitrile, 6-12 min 2%-30% acetonitrile, and 12-15 min 2% acetonitrile. The flow rate was 0.15 ml/min. Electrospray ionization mass spectroscopy (ESI-MS) was performed with a positive voltage of 4.5 kV and negative mode voltage −4.0 kV and a CDL temperature of 200° C. The analysis of the degradation products of BPLPs were conducted by immersing BPLPs in 1M K2CO3 solution at 37° C. for 24 hours. After degradation, the solutions were neutralized by 1N HCl solution to pH 7 and characterized by HPLC-MS as described above.
Fluorescence spectra were recorded by a Horiba FluoroMax-4 spectrofluorometer. All samples were measured at a concentration corresponding to an optical density of 0.1 in water and a slit size of 1 nm by 1 nm unless specified. Quantum yields were also determined on same spectrofluorometer by using a Quantum-φ integration sphere at samples' maximum excitation wavelength and at an increment of 0.3 nm. Photostability studies were done by continuously exciting samples at their maximum excitation wavelength and monitoring at the maximum emission wavelength.
Fluorescence spectra were recorded on a Horiba FluoroMax-4 spectrofluorometer (Horiba Scientific, Edison N.J.). All polymer and samples were characterized at a concentration of 2 wt % in 1,4-dioxane and a slit size of 1 nm by 1 nm unless otherwise specified. The fluorescence properties of small molecule dyes were also measure in 2 wt % DI water solutions at same conditions as polymer solutions. BPLPs were also degraded in 1M K2CO3 solution at 37° C. for 24 hours and then neutralized with 1N HCl solution to pH7. The resulting degradation solutions were subject to further PL characterizations. Quantum yields were also determined on the same spectrofluorometer by using a Quantum-φ integration sphere (Horiba Scientific, Edison N.J.) at the same concentration and slit size with the blank solvent as the reference. Photostability of small molecules and polymers were determined by monitoring the emission intensity decay at their max. Excitation and emission wavelengths over 3 hours of continuous lumination in the spectrofluorometer.
Absorbance Spectra were recorded on Tecan Infinite M200 Pro UV-vis spectroscopy, and fluorescence spectra were recorded on Horiba FluoroMax-4 fluorospectroscopy at concentrations below 0.1 O.D. unless otherwise indicated. Quantum Yields were measured on the Quantum φ Integrating Sphere accessory to the FluoroMax-4, while lifetime measurements were determined through the Time-Correlation Single Photon Counting (TCSPC) accessory to the FluroMax-4. TCSPC was utilized in conjunction with NanoLED pulsed diode light source with peak excitation wavelength at 352 nm and at 10,000 counts peak preset. Emission was collected at the fluorescence λmax, unless otherwise indicated. For all pH-dependence experiments, sample pH was adjusted with sulfuric acid or sodium hydroxide. For all chloride-dependent quenching experiments, magnesium chloride hexahydrate (Sigma Aldrich) was used.

[2] = Acid-base titration with NaOH (pKa, protolytic states); assay type: physicochemical
Experimental: The pKa values of CA-Cys were determined through acid-base titration with NaOH. Titration curves support the presence of two carboxyl groups with close pKa values for two reasons. The molar mass of CA-Cys, 241 g/mol as determined by LC-ESI-MS, matches the molar mass value of 245.6 g/mol determined by titration only when assuming a diprotic acid. Moreover, the long buffered region of the titration curve supports the presence of two carboxyl groups with close pKas that are overlapping the first inflection point, estimated to be at ½ NaOH volume of the end point.
Based on the pKa values determined from 2.4, a theoretical protolytic equilibria was established based on equations 1-3 below: […]

[3] = Dianion protolytic state (physiological pH)

Shifting (emission shifting with excitation wavelength) [1]: Yes
Φ (quantum yield) [1]: 21.2%
λem (maximum emission wavelength) [1]: 430 nm
λex (maximum excitation wavelength) [1]: 361 nm
ϵ (extinction coefficiency) [1]: 79 M⁻¹ cm⁻¹
band-shift effect ([1]; in acetone (ε=20.7)): moderate
band-shift effect ([1]; in dichloromethane (ε=8.93)): minimal
band-shift effect ([1]; in water (ε=80.1)): strongest
Max. Em. Wavelength ([1]; representative CFDs, Table I): 430 nm
Max. Ex. Wavelength ([1]; representative CFDs, Table I): 361 nm
Quantum Yield ([1]; representative CFDs, Table I): 21.2%
Compound: CC(C(=O)O)N1C(=O)C=C(C(=O)O)CC1=O (stereo not drawn) [CA-Ala]

pKa1 (3-carboxyl group) [2]: 2.345
pKa2 (7-carboxyl group) [2]: 3.41
Exists at pH ([2]; Anion protolytic state): 2.35~3.41
Exists at pH ([2]; Dianion protolytic state): >3.41
Exists at pH ([2]; Neutral protolytic state): <2.35
Quantum Yield [1]: ≤ 81%
extinction coefficient [1]: 8640 M⁻¹ cm⁻¹
Abs. Max ([1]; Anion protolytic state): 354 nm
Em. max ([1]; Anion protolytic state): 440 nm
Exc. max ([1]; Anion protolytic state): 360 nm
Stokes shift ([1]; Anion protolytic state): 80 nm
Φ ([1]; Anion protolytic state): 67.24%
ε ([1]; Anion protolytic state): 7454 M⁻¹ cm⁻¹
Abs. Max ([1]; Dianion protolytic state): 346 nm
Em. max ([1]; Dianion protolytic state): 418 nm
Exc. max ([1]; Dianion protolytic state): 350 nm
Stokes shift [1, 3]: 67 nm
Φ [1, 3]: 81.20%
ε [1, 3]: ~8640 M⁻¹ cm⁻¹
Abs. Max ([1]; Neutral protolytic state): 362 nm
Em. max ([1]; Neutral protolytic state): 445 nm
Exc. max ([1]; Neutral protolytic state): 366 nm
Stokes shift ([1]; Neutral protolytic state): 80 nm
Φ ([1]; Neutral protolytic state): Quenched
ε ([1]; Neutral protolytic state): ~8300 M⁻¹ cm⁻¹
Φ (quantum yield) [1]: 81.4%
λem (maximum emission wavelength) [1]: 445 nm
λex (maximum excitation wavelength) [1]: 364 nm
ϵ (extinction coefficiency) [1]: 8640 M⁻¹ cm⁻¹
quenching in organic solvents compared to water ([1]; dioxane, acetone, ethanol, isopropanol, DMSO): minimal quenching
Max. Em. Wavelength ([1]; representative CFDs, Table I): 445 nm
Max. Ex. Wavelength ([1]; representative CFDs, Table I): 364 nm
Quantum Yield ([1]; representative CFDs, Table I): 81.4%
Compound: O=C(O)c1cc2n(c(=O)c1)C(C(=O)O)CS2 (stereo not drawn) [CA-Cys]
Shifting (emission shifting with excitation wavelength) [1]: no fluorescence band shifting was observed and No
